Measurements reported in US10729693B2, “Compositions and methods for the treatment of endometriosis” (PONCE MEDICAL SCHOOL FOUNDATION, INC., priority 2018, dated 2020).

How the values were obtained:
[1] = test system: implantation sites; details: rodents; Fas-ligand immune tolerance dependent mechanism; cited from earlier work
[2] = Body weight monitoring of rats with endometriosis; format: in vivo, rat; details: vs vehicle
Text: Female Sprague Dawley rats of 60 days old were used in the experiments (weighing between 190-220 grams). Rats were purchased from Ponce Research Institute Animal Facilities and littermates were never assigned to the same experimental group. Rats were housed two per cage and kept in a 12-hour light/dark cycle with food and water ad libitum. All experimental procedures were approved by the Ponce Health Sciences University (protocol #202) and the University of Texas at Rio Grande Valley (protocol #2016-004) Institutional Animal Care and Use Committees and adhere to the NIH Guide for the Care and Use of Laboratory Animals. Rats were weighed twice per week to monitor their adequate development and once a day during the drug administration period; also, estrous cycles were monitored before and after treatment to assess possible effects of the drug on reproductive cyclicity.
Inconsistencies in the effect of antalarmin on […] rodent body weight can happen. The Group 2 rat weight changes were monitored during the drug administration period and every week afterwards during the development of endometriosis.

[3] = test system: stress reactivity; experiment: Swim stress challenge; format: in vivo, rat; details: day 59; vs vehicle control group
[4] = test system: endometriosis vesicles; experiment: Autotransplantation rat model of endometriosis: vesicle development and morphology; format: in vivo; details: at 60 days
Text: Experiment 2 consisted of 51 female rats that underwent endometriosis induction (n=40) or sham surgery (n=11). From the 40 rats that underwent endometriosis induction, 20 rats received the CRHR1 antagonist antalarmin intraperitoneally (i.p.) and 20 rats received vehicle control i.p. (10% Tween 80) from days 1-7 after surgery and endometriosis was allowed to progress until day 60 after surgery. The remaining 11 rats that underwent sham surgery were left untreated until day 60 after surgery. The sham group was used as a non-endometriosis baseline comparison. Only rats with regular estrous cycles were used in the experiments as assessed by vaginal smear lavage during the 7 days prior to surgery and on the day of sacrifice. […] Therefore, the final group numbers for endometriosis quantification and behavior were: endometriosis-antalarmin=20, endometriosis-vehicle=20, sham=10. Cyclicity was not assessed during the drug administration and was only collected before treatment and the day of sacrifice. This was decided to avoid any additional stressors not related to the drug administration per se that may affect results. The estrous cycle distribution for experiments 1 and 2 can be accessed in FIG. 14.
First, endometriosis in female rats was induced by suturing uterine horn tissue next to the intestinal mesentery and allowed to progress for 7 days. After 7 days, it was determined that there was a significant increase in CRHR1 within endometriotic vesicles as compared to a normal uterus. Endometriosis was induced in a second group of rats, and further the second group of rats received consecutive doses of antalarmin of 20 milligrams per kilogram intraperitoneal (20 mg/kg, i.p.) during the first 7 days after surgery. A separate group of sham surgery rats served as controls.
Briefly, rats were anesthetized with isoflurane and four pieces of the right uterine horn were auto transplanted to 4 different blood vessels in the intestinal mesentery. The control group was sham operated animals for which the right uterine horn was massaged for 2 minutes and sutures were placed in the intestinal mesenteric area with no uterine implants. For group 1, sham or endometriosis operated rats were allowed to progress for 7 days after surgery before sacrificed. For group 2, endometriosis was allowed to progress for 60 days before sacrificing.
(§1) It was verified that the animals were deeply anesthetized. Rats were weighed, and a cytological smear taken to verify stage of the estrous cycle. The peritoneal and thoracic cavities were opened, and a blood sample was collected directly from the heart. Following this, peritoneal fluid was collected using a sterile plastic pipette. Examination was directed to the presence of endometriosis vesicles. The implants that developed into vesicles were excised from the mesentery, weighed and measured using a digital caliper. Classification of vesicles was carried out and assigned the following grades: grade 1=disappeared; grade 2=0.01-1.99 mm; grade 3=2-4.49 mm; grade 4=4.5-5.99 mm; grade 5=6.0 mm or larger. In sham animals, empty suture sites were counted and collected. In addition to the endometriosis vesicles, the adrenal glands were collected, all surrounding fatty tissue was removed, and the cleared adrenal glands were weighed. Additionally, tissues from colon and the left uterine horn were collected. All tissues were flash frozen and stored at −80° until further processing.

[5] = test system: corticosterone, adrenocorticotropic hormone (ACTH), IL-6; experiment: ELISA of serum corticosterone and ACTH and of peritoneal fluid IL-6; format: in vivo, rat; details: at sacrifice
Text: as §1
Serum and peritoneal fluid samples from animals were tested for levels of corticosterone, adrenocorticotropic hormone (ACTH) and the pro-inflammatory cytokine IL-6 following instructions in the commercial kits. The following kits were used: Corticosterone rat/mouse kit (Cat. #79175; IBL America, Minneapolis, Minn.); Rat IL-6 pre-coated ELISA kit (Cat. #437107; BioLegend, San Diego, Calif.); Mouse/rat ACTH ELISA kit (Cat. # AC018T-100, Calbiotech, El Cajon, Calif.).

[6] = 20 mg/kg i.p. days 1-7 after surgery

For `CCCCN(CC)c1nc(C)nc2c1c(C)c(C)n2-c1c(C)cc(C)cc1C` [antalarmin], the “reduction of the number of implantation sites” value [1] is listed as 70%, the “weight gain in subsequent weeks” value ([2]; by week 7 and 8 after endometriosis induction) is listed as “significantly lower weight gain” and the “body weight during and just after drug administration” value ([2]; day 7 and 2 days after treatment stopped) is listed as “weighed significantly less”. The “swim stress behavioral parameters (immobility, swimming, struggling, diving)” value [3] was “not different from the control group”, the “average vesicle area per rat, difference to vehicle” value [4, 6] was 55% and the “average vesicle volume per rat, difference to vehicle” value [4, 6] was 68%. The “total weight of endometriosis vesicles (sum per rat), less than vehicle control (size decrease)” value [4, 6] was 67%, the “decrease in the number of developed endometriosis vesicles” value ([4]; 20 mg/kg i.p. days 1-7 after surgery, vs vehicle) was 30% and the “vesicle classification by grade (1-5, length scale)” value ([4]; vs vehicle treated control) was “a larger percentage of endometriosis vesicles that disappeared, as well as a reduced percentage of vesicles of grade 3 and 5”. The “IL-6 in peritoneal fluid” value ([5]; 53 days after treatment) was “did not produce any change”, the serum corticosterone ([5]; day 60) was “slightly elevated” and the “serum adrenocorticotropic hormone (ACTH)” value ([5]; day 60, compared to vehicle group) was “significantly elevated levels”.
